# Experimental data taken from patent US8921362B2, “6,7-dialkoxy quinazoline derivatives and methods of treating drug resistant and other tumors” (Natco Pharma Limited, priority 2008, dated 2014).
# Tests used:
# hERG = hERG (Homo sapiens, UniProt Q12809); experiment: hERG Ikr (tail) current, whole cell patch-clamp in CHO cells; conditions: 10 μM
# A549 human lung tumors = experiment: Evaluation of ED50 (lung section and tumor regression studies); assay type: in vivo, nude mice; conditions: Mus musculus, oral route
# Experimental: ED50 values were evaluated based on the lung section and tumor regression studies.
# CDK2 = molecular target: T1, CDK2 (Homo sapiens, UniProt P24941); experiment: KinomeScan; assay type: binding; conditions: read-out: % Ctrl @ 10000 nM
# T1 construct: host or cells: T7 phage in E. coli host derived from BL21
# Experimental: (§1) Kinase assays: Assays were performed as described in Fabian et al. (2005) Nature Biotechnology, vol. 23, p. 329. Kinase-tagged T7 phage strains were grown in parallel in 24 or 96-well blocks in an E. coli host derived from the BL21 strain. E. coli were grown to log-phase and infected with T7 phage from a frozen stock (multiplicity of infection ˜0.1) and incubated with shaking at 32° C. until lysis (−90 minutes). The lysates were centrifuged and filtered to remove cell debris. […] The liganded beads were blocked with excess biotin and washed with blocking buffer (SeaBlock (Pierce), 1% BSA, 0.05% Tween 20, 1 mM DTT) to remove unbound ligand and to reduce non-specific phage binding.
# (§2) Test compounds were prepared as 40× stocks in DMSO and diluted into the aqueous environment. 2.5% DMSO was added to control assays lacking a test compound. All reactions were performed in polystyrene 96-well plates that had been pretreated with blocking buffer in a final volume of 0.04 ml. […] The phage titer in the eluates was measured by quantitative PCR.
# LATS1 = molecular target: T2, LATS1 (Homo sapiens, UniProt O95835); experiment: KinomeScan; assay type: binding; conditions: read-out: % Ctrl @ 10000 nM
# T2 construct: host or cells: T7 phage grown in E. coli host derived from BL21
# Experimental: as §1, §2
# HIPK1 = molecular target: T3, HIPK1 (Homo sapiens, UniProt Q86Z02); experiment: KinomeScan; assay type: binding; conditions: read-out: % Ctrl @ 10000 nM
# T3 construct: host or cells: T7 phage in E. coli host derived from BL21
# Experimental: as §1, §2
# ABL1(Q252H) = molecular target: T4, ABL1(Q252H) (Homo sapiens, UniProt P00519, Q252H); experiment: KinomeScan; assay type: binding; conditions: read-out: % Ctrl @ 10000 nM
# T4 construct: host or cells: E. coli (BL21-derived), T7 phage lysate
# Experimental: as §1, §2
# TESK1 = molecular target: T5, TESK1 (Homo sapiens, UniProt Q15569); experiment: KinomeScan; assay type: binding; conditions: read-out: % Ctrl @ 10000 nM
# T5 construct: host or cells: T7 phage grown in E. coli (BL21-derived)
# T5 sequence (Q15569 whole entry): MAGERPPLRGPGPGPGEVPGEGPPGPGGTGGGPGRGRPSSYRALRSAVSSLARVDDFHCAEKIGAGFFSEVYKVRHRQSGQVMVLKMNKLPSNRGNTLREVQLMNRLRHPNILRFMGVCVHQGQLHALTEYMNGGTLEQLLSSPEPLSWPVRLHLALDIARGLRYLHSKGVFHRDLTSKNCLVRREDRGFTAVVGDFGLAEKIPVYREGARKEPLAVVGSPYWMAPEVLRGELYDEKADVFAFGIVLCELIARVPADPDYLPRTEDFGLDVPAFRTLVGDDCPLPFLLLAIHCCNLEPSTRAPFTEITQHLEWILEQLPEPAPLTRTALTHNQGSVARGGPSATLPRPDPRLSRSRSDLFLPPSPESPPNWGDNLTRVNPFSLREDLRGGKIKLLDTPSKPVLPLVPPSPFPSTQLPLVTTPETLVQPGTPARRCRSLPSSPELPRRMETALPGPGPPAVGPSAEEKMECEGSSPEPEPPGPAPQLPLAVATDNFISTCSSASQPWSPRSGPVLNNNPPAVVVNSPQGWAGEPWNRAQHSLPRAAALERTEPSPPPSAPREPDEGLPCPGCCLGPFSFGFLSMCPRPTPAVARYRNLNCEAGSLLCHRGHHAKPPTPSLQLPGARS
# Experimental: as §1, §2
# ABL1(F317I) = molecular target: T6, ABL1(F317I) (Homo sapiens, UniProt P00519, F317I); experiment: KinomeScan; assay type: binding; conditions: read-out: % Ctrl @ 10000 nM
# T6 construct: host or cells: E. coli (BL21-derived), T7 phage lysate
# Experimental: as §1, §2
# PRKD1 = molecular target: T7, PRKD1 (Homo sapiens, UniProt Q15139); experiment: KinomeScan; assay type: binding; conditions: read-out: % Ctrl @ 10000 nM
# T7 construct: host or cells: T7 phage in E. coli host derived from BL21
# T7 sequence (Q15139 whole entry): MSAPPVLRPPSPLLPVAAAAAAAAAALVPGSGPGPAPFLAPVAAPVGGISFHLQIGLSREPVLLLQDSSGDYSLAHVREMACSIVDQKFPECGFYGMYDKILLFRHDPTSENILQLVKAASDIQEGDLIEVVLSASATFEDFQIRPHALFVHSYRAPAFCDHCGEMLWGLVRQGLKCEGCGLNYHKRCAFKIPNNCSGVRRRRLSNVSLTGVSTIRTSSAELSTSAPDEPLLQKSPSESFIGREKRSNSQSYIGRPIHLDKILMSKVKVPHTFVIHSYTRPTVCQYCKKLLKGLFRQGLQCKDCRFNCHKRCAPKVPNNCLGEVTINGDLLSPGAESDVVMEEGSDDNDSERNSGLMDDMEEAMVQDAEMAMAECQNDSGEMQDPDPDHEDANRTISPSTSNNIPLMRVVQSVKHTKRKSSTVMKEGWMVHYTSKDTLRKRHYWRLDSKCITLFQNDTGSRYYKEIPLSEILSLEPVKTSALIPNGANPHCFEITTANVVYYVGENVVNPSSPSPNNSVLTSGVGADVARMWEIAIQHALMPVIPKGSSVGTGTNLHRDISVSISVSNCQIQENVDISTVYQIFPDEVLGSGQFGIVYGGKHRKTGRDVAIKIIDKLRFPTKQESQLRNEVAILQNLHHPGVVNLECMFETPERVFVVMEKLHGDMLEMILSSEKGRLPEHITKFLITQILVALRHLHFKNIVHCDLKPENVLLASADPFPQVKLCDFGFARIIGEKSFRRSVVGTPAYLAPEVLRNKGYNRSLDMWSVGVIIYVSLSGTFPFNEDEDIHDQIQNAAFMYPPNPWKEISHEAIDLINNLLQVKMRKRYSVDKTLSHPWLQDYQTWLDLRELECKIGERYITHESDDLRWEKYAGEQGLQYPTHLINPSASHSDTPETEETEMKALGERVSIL
# Experimental: as §1, §2
# TAOK1 = molecular target: T8, TAOK1 (Homo sapiens, UniProt Q7L7X3); experiment: KinomeScan; assay type: binding; conditions: read-out: % Ctrl @ 10000 nM
# T8 construct: host or cells: T7 phage grown in E. coli (BL21-derived)
# Experimental: as §1, §2
# ASK1 = molecular target: T9, ASK1 (Homo sapiens, UniProt Q99683); experiment: KinomeScan; assay type: binding; conditions: read-out: % Ctrl @ 10000 nM
# T9 construct: host or cells: E. coli host derived from BL21
# Experimental: as §1, §2
# AAK1 = molecular target: T10, AAK1 (Homo sapiens, UniProt Q2M2I8); experiment: KinomeScan; assay type: binding; conditions: read-out: % Ctrl @ 10000 nM
# T10 construct: host or cells: E. coli (BL21-derived), T7 phage lysate
# Experimental: as §1, §2
# IKK-alpha = molecular target: T11, IKK-alpha (Homo sapiens, UniProt O15111); experiment: KinomeScan; assay type: binding; conditions: read-out: % Ctrl @ 10000 nM
# T11 construct: host or cells: T7 phage grown in E. coli host derived from BL21
# Experimental: as §1, §2
# CHEK1 = molecular target: T12, CHEK1 (Homo sapiens, UniProt O14757); experiment: KinomeScan; assay type: binding; conditions: read-out: % Ctrl @ 10000 nM
# T12 construct: host or cells: T7 phage in E. coli host derived from BL21
# Experimental: as §1, §2
# PCTK2 = molecular target: T13, PCTK2 (Homo sapiens, UniProt Q00537); experiment: KinomeScan; assay type: binding; conditions: read-out: % Ctrl @ 10000 nM
# T13 construct: host or cells: E. coli host derived from BL21, infected with T7 phage
# T13 sequence (Q00537 whole entry): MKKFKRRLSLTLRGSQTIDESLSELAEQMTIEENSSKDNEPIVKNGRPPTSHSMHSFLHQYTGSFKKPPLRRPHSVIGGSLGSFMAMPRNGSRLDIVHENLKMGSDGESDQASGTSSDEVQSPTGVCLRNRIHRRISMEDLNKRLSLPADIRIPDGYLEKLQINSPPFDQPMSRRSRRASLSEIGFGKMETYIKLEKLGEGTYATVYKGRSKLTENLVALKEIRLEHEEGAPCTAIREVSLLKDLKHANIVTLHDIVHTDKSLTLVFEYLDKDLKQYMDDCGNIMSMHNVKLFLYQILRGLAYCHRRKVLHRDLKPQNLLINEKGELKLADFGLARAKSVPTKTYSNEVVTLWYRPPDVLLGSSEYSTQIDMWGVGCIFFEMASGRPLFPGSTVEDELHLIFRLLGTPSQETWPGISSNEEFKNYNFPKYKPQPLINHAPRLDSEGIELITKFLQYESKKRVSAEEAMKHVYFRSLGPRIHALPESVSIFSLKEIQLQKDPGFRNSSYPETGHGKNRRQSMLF
# Experimental: as §1, §2
# CSNK2A2 = molecular target: T14, CSNK2A2 (Homo sapiens, UniProt P19784); experiment: KinomeScan; assay type: binding; conditions: read-out: % Ctrl @ 10000 nM
# T14 construct: purchased Ambit Biosciences Corp (KinomeScan); host or cells: T7 phage in E. coli host derived from BL21
# Experimental: as §1, §2
# ERK4 = molecular target: T15, ERK4 (Homo sapiens, UniProt P31152); experiment: KinomeScan; assay type: binding; conditions: read-out: % Ctrl @ 10000 nM
# T15 construct: purchased Ambit Biosciences Corp; host or cells: T7 phage in E. coli host derived from BL21
# T15 sequence (P31152 whole entry): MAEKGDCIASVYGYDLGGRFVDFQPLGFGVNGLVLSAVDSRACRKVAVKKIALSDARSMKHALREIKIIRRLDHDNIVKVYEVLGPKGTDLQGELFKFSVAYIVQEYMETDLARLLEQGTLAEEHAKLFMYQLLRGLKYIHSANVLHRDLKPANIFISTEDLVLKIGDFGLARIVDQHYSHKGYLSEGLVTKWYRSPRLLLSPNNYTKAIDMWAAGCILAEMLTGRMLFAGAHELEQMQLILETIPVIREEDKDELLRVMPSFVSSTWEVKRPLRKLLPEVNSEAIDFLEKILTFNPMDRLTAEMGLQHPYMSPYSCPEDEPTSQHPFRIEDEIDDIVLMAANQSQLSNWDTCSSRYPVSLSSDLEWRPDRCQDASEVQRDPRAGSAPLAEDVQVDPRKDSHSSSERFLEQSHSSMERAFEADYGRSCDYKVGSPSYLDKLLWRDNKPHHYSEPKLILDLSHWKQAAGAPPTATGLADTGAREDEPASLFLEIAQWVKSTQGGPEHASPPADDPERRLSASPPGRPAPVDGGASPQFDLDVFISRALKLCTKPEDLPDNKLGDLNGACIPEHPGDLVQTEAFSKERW
# Experimental: as §1, §2
# AKT2 = molecular target: T16, AKT2 (Homo sapiens, UniProt P31751); experiment: KinomeScan; assay type: binding; conditions: read-out: % Ctrl @ 10000 nM
# T16 construct: host or cells: E. coli (BL21-derived), T7 phage lysate
# Experimental: as §1, §2
# PKN2 = molecular target: T17, PKN2 (Homo sapiens, UniProt Q16513); experiment: KinomeScan; assay type: binding; conditions: read-out: % Ctrl @ 10000 nM
# T17 construct: host or cells: T7 phage in E. coli host derived from BL21
# Experimental: as §1, §2
# PCTK3 = molecular target: T18, PCTK3 (Homo sapiens, UniProt Q07002); experiment: KinomeScan; assay type: binding; conditions: read-out: % Ctrl @ 10000 nM
# T18 construct: host or cells: E. coli host derived from BL21, infected with T7 phage
# Experimental: as §1, §2
# FGFR3(G697C) = molecular target: T19, FGFR3(G697C) (Homo sapiens, UniProt P22607, G697C); experiment: KinomeScan; assay type: binding; conditions: read-out: % Ctrl @ 10000 nM
# T19 construct: host or cells: T7 phage in E. coli host derived from BL21
# Experimental: as §1, §2
# PRKR = molecular target: T20, PRKR (Homo sapiens, UniProt P19525); experiment: KinomeScan; assay type: binding; conditions: read-out: % Ctrl @ 10000 nM
# T20 construct: host or cells: T7 phage in E. coli host derived from BL21
# Experimental: as §1, §2
# PRKG2 = molecular target: T21, PRKG2 (Homo sapiens, UniProt Q13237); experiment: KinomeScan; assay type: binding; conditions: read-out: % Ctrl @ 10000 nM
# T21 construct: host or cells: T7 phage in E. coli host derived from BL21
# Experimental: as §1, §2
# AXL = molecular target: T22, AXL (Homo sapiens, UniProt P30530); experiment: KinomeScan; assay type: binding; conditions: read-out: % Ctrl @ 10000 nM
# T22 construct: host or cells: E. coli host derived from BL21
# T22 sequence (P30530 26-894): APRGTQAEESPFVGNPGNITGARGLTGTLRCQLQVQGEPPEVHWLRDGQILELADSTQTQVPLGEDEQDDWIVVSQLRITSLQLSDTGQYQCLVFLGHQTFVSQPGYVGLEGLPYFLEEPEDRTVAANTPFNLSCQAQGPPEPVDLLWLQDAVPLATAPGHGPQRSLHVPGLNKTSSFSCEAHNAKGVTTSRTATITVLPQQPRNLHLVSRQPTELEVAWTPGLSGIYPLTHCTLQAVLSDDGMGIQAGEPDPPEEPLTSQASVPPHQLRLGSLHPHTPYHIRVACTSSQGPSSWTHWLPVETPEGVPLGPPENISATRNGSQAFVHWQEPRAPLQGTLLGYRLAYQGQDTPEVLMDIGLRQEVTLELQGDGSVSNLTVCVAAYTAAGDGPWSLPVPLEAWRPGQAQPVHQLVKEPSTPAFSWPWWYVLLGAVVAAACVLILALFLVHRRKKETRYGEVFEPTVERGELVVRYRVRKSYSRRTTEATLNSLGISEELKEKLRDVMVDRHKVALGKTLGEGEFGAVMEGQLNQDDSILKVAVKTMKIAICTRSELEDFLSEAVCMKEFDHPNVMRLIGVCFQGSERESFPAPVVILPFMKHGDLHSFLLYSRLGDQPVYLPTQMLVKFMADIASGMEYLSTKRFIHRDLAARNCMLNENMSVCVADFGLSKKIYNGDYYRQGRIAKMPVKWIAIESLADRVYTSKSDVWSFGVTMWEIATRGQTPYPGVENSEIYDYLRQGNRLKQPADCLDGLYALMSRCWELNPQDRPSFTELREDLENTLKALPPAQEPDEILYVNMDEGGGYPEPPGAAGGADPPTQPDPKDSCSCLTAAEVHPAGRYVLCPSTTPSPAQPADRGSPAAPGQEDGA
# Experimental: as §1, §2
# FGR = molecular target: T23, FGR (Homo sapiens, UniProt P09769); experiment: KinomeScan; assay type: binding; conditions: read-out: % Ctrl @ 10000 nM
# T23 construct: host or cells: T7 phage in E. coli host derived from BL21
# Experimental: as §1, §2
# EPHA7 = molecular target: T24, EPHA7 (Homo sapiens, UniProt Q15375); experiment: KinomeScan; assay type: binding; conditions: read-out: % Ctrl @ 10000 nM
# T24 construct: purchased Ambit Biosciences Corp; host or cells: T7 phage in E. coli host derived from BL21
# Experimental: as §1, §2
# ROS1 = molecular target: T25, ROS1 (Homo sapiens, UniProt P08922); experiment: KinomeScan; assay type: binding; conditions: read-out: % Ctrl @ 10000 nM
# T25 construct: host or cells: E. coli host derived from BL21, T7 phage display
# Experimental: as §1, §2
# [1] = molecular target: T26, RPS6KA3(Kin.Dom.-1-N-terminal) (Homo sapiens, UniProt P51812); experiment: KinomeScan; assay type: binding; conditions: read-out: % Ctrl @ 10000 nM
# T26 construct: RPS6KA3(Kin.Dom.-1-N-terminal); host or cells: E. coli host derived from BL21, T7 phage display
# T26 sequence (P51812 68-327 limits assumed): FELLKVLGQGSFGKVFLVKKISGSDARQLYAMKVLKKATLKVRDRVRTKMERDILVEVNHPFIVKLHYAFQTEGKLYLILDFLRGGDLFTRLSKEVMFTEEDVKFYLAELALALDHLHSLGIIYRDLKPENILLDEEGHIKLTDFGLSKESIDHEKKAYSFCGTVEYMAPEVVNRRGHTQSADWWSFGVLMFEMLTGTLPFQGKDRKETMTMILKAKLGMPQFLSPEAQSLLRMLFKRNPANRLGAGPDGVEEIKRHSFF
# Experimental: as §1, §2
# TNIK = molecular target: T27, TNIK (Homo sapiens, UniProt Q9UKE5); experiment: KinomeScan; assay type: binding; conditions: read-out: % Ctrl @ 10000 nM
# T27 construct: host or cells: E. coli host derived from BL21, T7 phage
# Experimental: as §1, §2
# ERK1 = molecular target: T28, ERK1 (Homo sapiens, UniProt P27361); experiment: KinomeScan; assay type: binding; conditions: read-out: % Ctrl @ 10000 nM
# T28 construct: purchased Ambit Biosciences Corp; host or cells: T7 phage in E. coli host derived from BL21
# Experimental: as §1, §2
# FLT3 = molecular target: T29, FLT3 (Homo sapiens, UniProt P36888); experiment: KinomeScan; assay type: binding; conditions: read-out: % Ctrl @ 10000 nM
# T29 construct: host or cells: T7 phage in E. coli host derived from BL21
# Experimental: as §1, §2
# CSNK1A1L = molecular target: T30, CSNK1A1L (Homo sapiens, UniProt Q8N752); experiment: KinomeScan; assay type: binding; conditions: read-out: % Ctrl @ 10000 nM
# T30 construct: host or cells: T7 phage in E. coli host derived from BL21
# Experimental: as §1, §2
# CDK5 = molecular target: T31, CDK5 (Homo sapiens, UniProt Q00535); experiment: KinomeScan; assay type: binding; conditions: read-out: % Ctrl @ 10000 nM
# T31 construct: host or cells: T7 phage in E. coli host derived from BL21
# Experimental: as §1, §2
# Chain of hERG (Q12809 whole entry): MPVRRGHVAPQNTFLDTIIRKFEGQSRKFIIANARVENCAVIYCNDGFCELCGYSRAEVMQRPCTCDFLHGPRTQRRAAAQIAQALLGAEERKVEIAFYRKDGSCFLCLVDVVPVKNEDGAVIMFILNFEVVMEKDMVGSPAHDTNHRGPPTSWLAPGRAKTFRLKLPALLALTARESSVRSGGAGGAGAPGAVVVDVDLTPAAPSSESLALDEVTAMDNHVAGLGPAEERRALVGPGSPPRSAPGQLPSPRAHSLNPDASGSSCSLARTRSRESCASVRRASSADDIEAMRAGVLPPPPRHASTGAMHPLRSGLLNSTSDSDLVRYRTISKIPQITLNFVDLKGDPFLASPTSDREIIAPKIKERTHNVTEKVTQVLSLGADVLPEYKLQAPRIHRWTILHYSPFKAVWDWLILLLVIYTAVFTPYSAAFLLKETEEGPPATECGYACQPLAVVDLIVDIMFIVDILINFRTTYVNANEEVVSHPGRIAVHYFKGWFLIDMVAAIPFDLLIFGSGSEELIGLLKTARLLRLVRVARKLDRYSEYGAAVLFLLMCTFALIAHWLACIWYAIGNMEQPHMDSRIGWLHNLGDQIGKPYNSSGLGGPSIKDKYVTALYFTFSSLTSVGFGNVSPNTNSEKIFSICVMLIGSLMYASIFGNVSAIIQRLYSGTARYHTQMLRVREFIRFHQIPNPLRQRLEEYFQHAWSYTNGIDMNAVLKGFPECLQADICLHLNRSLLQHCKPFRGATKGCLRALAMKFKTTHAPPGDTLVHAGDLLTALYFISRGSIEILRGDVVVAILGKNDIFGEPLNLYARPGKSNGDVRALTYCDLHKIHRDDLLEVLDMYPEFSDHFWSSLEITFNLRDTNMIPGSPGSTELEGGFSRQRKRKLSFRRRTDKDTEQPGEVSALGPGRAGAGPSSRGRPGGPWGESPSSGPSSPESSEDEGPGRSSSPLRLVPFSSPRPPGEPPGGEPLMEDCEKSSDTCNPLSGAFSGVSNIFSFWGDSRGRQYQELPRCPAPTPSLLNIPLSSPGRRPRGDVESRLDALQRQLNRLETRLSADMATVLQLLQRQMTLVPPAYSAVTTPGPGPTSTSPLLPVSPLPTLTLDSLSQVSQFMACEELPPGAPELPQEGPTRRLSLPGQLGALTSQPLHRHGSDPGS
smiles,measurement,setting,value
"C#Cc1cccc(Nc2ncnc3cc(OC)c(OCCCN4CCOCC4)cc23)c1 [NRC-2694, N-(3-ethynylphenyl)-7-methoxy-6-[3-(4-morpholinyl)propoxy]-4-quinazolinamine]",inhibition of hERG current,hERG,~42%
same,ED50,A549 human lung tumors,6.3 mg/kg
same,remaining binding at 10 µM,CDK2,94%
same,remaining binding at 10 µM,LATS1,91%
same,remaining binding at 10 µM,HIPK1,70%
same,remaining binding at 10 µM,ABL1(Q252H),15%
same,remaining binding at 10 µM,TESK1,83%
same,remaining binding at 10 µM,ABL1(F317I),48%
same,remaining binding at 10 µM,PRKD1,9.6%
same,remaining binding at 10 µM,TAOK1,54%
same,remaining binding at 10 µM,ASK1,100%
same,remaining binding at 10 µM,AAK1,38%
same,remaining binding at 10 µM,IKK-alpha,41%
same,remaining binding at 10 µM,CHEK1,42%
same,remaining binding at 10 µM,PCTK2,72%
same,remaining binding at 10 µM,CSNK2A2,52%
same,remaining binding at 10 µM,ERK4,3.7%
same,remaining binding at 10 µM,AKT2,100%
same,remaining binding at 10 µM,PKN2,31%
same,remaining binding at 10 µM,PCTK3,82%
same,remaining binding at 10 µM,FGFR3(G697C),82%
same,remaining binding at 10 µM,PRKR,51%
same,remaining binding at 10 µM,PRKG2,40%
same,remaining binding at 10 µM,AXL,25%
same,remaining binding at 10 µM,FGR,19%
same,remaining binding at 10 µM,EPHA7,70%
same,remaining binding at 10 µM,ROS1,46%
same,remaining binding at 10 µM,[1],94%
same,remaining binding at 10 µM,TNIK,17%
same,remaining binding at 10 µM,ERK1,98%
same,remaining binding at 10 µM,FLT3,49%
same,remaining binding at 10 µM,CSNK1A1L,44%
same,remaining binding at 10 µM,CDK5,100%
